Data from paper PMC10046369, “Low-Affinity/High-Selectivity Dopamine Transport Inhibition Sufficient to Rescue Cognitive Functions in the Aging Rat” (Biomolecules, 2023).

Experiments:
Assay in all cases: biochemical
Set-up in all cases: KINOMEscan competition binding panel, per cent of control
Conditions in all cases: read-out: %Ctrl @ 2800nM
CSK = CSK (Homo sapiens, UniProt P41240)
Procedure, shortened: (§1)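 Values are expressed as percent of control, calculated as ((test − positive control)/(negative control − positive control)) × 100, so lower numbers mean stronger hits. Binding was measured by KINOMEscan competition assay in a 450-kinase human panel including disease mutants, using the contractor's validated protocol.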

PRKCE = PRKCE (Homo sapiens, UniProt Q02156)
Procedure, shortened: as §1

ADCK3 = target: T1, ADCK3 (Homo sapiens, UniProt Q8NI60)
T1 construct: gene COQ8A
T1 sequence (Q8NI60 whole entry): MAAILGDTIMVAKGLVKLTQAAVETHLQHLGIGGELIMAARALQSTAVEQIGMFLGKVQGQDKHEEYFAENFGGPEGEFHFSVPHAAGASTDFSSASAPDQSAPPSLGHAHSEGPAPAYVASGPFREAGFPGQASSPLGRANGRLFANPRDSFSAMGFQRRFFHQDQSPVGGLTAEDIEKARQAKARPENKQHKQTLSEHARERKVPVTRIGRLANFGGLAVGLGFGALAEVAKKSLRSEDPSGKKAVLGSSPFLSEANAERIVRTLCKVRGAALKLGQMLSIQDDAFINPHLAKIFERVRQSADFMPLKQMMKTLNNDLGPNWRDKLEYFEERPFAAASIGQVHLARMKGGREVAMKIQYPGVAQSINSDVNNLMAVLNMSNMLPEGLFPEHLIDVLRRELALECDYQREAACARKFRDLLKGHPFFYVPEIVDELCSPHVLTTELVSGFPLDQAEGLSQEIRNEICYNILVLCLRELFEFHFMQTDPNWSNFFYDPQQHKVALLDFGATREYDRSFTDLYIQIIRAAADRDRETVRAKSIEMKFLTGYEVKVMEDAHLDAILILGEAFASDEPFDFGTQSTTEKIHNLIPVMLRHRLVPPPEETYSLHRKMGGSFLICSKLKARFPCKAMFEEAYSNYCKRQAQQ
Procedure, shortened: as §1

GRK3 = GRK3 (Homo sapiens, UniProt P35626)
Procedure, shortened: as §1

PIK3CA = PIK3CA (Homo sapiens, UniProt P42336)
Procedure, shortened: as §1

FLT3 = FLT3 (Homo sapiens, UniProt P36888)
Procedure, shortened: as §1

FLT3(ITD,D835V) = FLT3(ITD,D835V) (Homo sapiens, UniProt P36888, D835V/ITD)
Procedure, shortened: as §1

IKK-beta = target: T2, IKK-beta (Homo sapiens, UniProt O14920)
T2 construct: gene IKBKB
Procedure, shortened: as §1

AKT1 = AKT1 (Homo sapiens, UniProt P31749)
Procedure, shortened: as §1

MKNK1 = MKNK1 (Homo sapiens, UniProt Q9BUB5)
Procedure, shortened: as §1

TAOK3 = TAOK3 (Homo sapiens, UniProt Q9H2K8)
Chain of TAOK3 (Q9H2K8 whole entry): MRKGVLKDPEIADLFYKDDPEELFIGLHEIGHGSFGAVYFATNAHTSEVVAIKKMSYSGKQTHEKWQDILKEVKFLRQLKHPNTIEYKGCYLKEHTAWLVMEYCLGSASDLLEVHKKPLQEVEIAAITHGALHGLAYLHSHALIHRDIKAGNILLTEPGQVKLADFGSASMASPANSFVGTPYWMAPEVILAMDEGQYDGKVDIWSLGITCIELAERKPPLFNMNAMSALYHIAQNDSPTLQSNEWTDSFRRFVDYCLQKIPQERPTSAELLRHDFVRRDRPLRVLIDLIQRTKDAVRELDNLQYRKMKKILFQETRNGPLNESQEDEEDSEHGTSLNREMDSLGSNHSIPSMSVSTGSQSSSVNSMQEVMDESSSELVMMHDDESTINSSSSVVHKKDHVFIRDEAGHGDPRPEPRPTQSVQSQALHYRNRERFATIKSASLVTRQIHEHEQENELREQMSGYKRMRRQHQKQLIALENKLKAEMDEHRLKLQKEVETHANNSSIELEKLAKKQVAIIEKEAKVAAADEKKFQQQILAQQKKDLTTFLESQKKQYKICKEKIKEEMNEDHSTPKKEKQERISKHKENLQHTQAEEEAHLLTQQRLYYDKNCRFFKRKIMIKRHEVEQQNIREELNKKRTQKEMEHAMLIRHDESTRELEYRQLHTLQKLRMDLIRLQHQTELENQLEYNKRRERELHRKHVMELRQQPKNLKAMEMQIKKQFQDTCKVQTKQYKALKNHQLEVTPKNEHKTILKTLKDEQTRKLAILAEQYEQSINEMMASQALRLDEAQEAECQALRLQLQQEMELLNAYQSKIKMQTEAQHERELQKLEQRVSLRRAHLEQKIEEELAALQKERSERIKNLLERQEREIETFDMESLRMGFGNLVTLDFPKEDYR
Procedure, shortened: as §1

KIT(V559D,V654A) = KIT(V559D,V654A) (Homo sapiens, UniProt P10721, V559D/V654A)
Procedure, shortened: as §1

NEK10 = NEK10 (Homo sapiens, UniProt Q6ZWH5)
Chain of NEK10 (Q6ZWH5 whole entry): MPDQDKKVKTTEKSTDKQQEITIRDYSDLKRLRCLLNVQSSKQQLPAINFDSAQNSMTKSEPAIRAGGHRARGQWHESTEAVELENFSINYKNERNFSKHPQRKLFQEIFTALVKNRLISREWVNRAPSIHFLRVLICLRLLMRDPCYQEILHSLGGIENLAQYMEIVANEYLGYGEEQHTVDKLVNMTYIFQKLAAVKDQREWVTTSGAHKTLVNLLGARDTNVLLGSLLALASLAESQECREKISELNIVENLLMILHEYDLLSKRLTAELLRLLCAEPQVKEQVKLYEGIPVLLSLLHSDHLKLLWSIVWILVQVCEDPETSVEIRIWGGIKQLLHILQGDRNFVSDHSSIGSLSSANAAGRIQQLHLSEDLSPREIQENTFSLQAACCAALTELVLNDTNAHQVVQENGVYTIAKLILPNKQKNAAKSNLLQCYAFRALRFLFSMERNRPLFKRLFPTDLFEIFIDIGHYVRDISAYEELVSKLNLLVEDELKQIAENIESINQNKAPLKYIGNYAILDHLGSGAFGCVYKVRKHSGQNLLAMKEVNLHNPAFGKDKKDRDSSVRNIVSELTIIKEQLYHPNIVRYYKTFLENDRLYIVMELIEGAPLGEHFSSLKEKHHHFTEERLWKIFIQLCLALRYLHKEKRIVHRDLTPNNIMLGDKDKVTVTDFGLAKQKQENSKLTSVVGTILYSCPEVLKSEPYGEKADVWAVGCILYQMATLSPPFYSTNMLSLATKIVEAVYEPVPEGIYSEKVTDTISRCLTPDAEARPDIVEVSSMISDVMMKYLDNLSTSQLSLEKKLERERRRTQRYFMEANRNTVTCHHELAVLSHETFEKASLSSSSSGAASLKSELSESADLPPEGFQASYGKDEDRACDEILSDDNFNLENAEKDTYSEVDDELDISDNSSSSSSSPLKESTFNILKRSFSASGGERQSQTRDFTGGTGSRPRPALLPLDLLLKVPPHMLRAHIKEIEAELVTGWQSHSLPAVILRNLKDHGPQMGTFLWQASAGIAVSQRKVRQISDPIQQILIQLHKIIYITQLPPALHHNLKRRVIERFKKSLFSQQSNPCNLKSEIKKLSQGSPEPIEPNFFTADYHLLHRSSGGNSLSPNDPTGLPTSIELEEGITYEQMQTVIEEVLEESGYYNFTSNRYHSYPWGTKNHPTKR
Procedure, shortened: as §1

RET(M918T) = RET(M918T) (Homo sapiens, UniProt P07949, M918T)
Procedure, shortened: as §1

BMPR1A = BMPR1A (Homo sapiens, UniProt P36894)
Procedure, shortened: as §1

PAK3 = PAK3 (Homo sapiens, UniProt O75914)
Chain of PAK3 (O75914 whole entry): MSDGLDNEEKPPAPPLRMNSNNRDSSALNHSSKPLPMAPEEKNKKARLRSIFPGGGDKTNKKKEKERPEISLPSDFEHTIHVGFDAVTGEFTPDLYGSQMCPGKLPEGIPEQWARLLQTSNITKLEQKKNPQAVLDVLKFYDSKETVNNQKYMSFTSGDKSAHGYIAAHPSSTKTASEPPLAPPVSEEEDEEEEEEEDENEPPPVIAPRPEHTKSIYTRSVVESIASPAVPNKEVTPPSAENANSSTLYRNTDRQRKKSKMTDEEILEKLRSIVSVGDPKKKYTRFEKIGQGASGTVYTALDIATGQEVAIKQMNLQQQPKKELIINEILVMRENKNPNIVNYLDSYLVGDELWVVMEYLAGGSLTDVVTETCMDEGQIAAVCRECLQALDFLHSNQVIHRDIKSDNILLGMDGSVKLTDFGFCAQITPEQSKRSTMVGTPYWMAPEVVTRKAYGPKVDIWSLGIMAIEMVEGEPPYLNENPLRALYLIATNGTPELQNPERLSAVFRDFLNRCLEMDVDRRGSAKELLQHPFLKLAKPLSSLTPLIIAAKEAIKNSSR
Procedure, shortened: as §1

FLT3(D835V) = FLT3(D835V) (Homo sapiens, UniProt P36888, D835V)
Procedure, shortened: as §1

PIK4CB = target: T3, PIK4CB (Homo sapiens, UniProt Q9UBF8)
T3 construct: gene PI4KB
T3 sequence (Q9UBF8 whole entry): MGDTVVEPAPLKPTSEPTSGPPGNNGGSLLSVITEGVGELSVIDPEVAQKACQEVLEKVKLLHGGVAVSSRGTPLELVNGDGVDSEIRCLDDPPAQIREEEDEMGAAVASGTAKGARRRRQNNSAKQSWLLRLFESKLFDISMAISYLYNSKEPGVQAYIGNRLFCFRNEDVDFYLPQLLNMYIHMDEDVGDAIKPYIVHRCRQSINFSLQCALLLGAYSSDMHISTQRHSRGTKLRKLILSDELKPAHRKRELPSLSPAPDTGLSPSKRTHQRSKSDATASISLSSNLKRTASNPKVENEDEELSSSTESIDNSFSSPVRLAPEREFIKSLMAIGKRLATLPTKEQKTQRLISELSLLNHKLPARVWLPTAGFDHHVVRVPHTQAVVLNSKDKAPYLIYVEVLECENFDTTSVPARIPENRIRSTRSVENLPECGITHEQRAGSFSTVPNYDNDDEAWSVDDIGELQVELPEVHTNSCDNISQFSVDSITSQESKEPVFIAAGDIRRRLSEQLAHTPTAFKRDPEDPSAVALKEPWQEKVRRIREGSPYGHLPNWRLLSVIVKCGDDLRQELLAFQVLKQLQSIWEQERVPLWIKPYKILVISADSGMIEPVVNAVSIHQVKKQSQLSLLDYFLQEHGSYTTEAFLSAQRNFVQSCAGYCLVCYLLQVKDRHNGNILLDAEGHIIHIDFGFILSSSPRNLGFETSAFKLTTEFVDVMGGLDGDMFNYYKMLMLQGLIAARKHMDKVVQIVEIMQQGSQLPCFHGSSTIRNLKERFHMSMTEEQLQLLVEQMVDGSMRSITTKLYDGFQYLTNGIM
Procedure, shortened: as §1

SRPK1 = SRPK1 (Homo sapiens, UniProt Q96SB4)
Chain of SRPK1 (Q96SB4 whole entry): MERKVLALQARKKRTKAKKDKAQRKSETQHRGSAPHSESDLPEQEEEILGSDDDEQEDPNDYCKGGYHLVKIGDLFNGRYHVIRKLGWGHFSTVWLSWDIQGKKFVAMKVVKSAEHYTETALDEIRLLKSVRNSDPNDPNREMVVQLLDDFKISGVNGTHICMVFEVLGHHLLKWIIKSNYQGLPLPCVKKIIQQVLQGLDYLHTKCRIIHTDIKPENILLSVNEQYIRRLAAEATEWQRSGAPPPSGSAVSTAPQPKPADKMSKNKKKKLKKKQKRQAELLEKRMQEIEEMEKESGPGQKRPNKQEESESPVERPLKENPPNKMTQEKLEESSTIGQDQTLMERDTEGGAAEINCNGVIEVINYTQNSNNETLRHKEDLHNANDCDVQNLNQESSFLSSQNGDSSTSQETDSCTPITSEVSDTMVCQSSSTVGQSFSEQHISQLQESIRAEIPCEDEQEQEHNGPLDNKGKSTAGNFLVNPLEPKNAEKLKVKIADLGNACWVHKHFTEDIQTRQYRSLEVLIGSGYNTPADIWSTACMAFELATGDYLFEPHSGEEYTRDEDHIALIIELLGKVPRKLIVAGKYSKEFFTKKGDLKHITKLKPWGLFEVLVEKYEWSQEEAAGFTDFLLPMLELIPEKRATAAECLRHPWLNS
Procedure, shortened: as §1

KIT(A829P) = KIT(A829P) (Homo sapiens, UniProt P10721, A829P)
Procedure, shortened: as §1

CDC2L1 = target: T4, CDC2L1 (Homo sapiens, UniProt P21127)
T4 construct: gene CDK11B
Procedure, shortened: as §1

PIKFYVE = PIKFYVE (Homo sapiens, UniProt Q9Y2I7)
Procedure, shortened: as §1

DCAMKL2 = target: T5, DCAMKL2 (Homo sapiens, UniProt Q8N568)
T5 construct: gene DCLK2
Procedure, shortened: as §1

LIMK1 = LIMK1 (Homo sapiens, UniProt P53667)
Procedure, shortened: as §1

MARK3 = MARK3 (Homo sapiens, UniProt P27448)
Procedure, shortened: as §1

DCAMKL3 = target: T6, DCAMKL3 (Homo sapiens, UniProt Q9C098)
T6 construct: gene DCLK3
Procedure, shortened: as §1

## [O-][S@@+](Cc1cncs1)C(c1ccccc1)c1ccccc1 [S-CE-123, (S)-5-((Benzhydrylsulfinyl)Methyl)Thiazole]
CSK
  remaining binding at 2.8 µM: 98%
PRKCE
  remaining binding at 2.8 µM: 100%
ADCK3
  remaining binding at 2.8 µM: 87%
GRK3
  remaining binding at 2.8 µM: 100%
PIK3CA
  remaining binding at 2.8 µM: 80%
FLT3
  remaining binding at 2.8 µM: 96%
FLT3(ITD,D835V)
  remaining binding at 2.8 µM: 100%
IKK-beta
  remaining binding at 2.8 µM: 96%
AKT1
  remaining binding at 2.8 µM: 99%
MKNK1
  remaining binding at 2.8 µM: 96%
TAOK3
  remaining binding at 2.8 µM: 91%
KIT(V559D,V654A)
  remaining binding at 2.8 µM: 100%
NEK10
  remaining binding at 2.8 µM: 100%
RET(M918T)
  remaining binding at 2.8 µM: 89%
BMPR1A
  remaining binding at 2.8 µM: 100%
PAK3
  remaining binding at 2.8 µM: 70%
FLT3(D835V)
  remaining binding at 2.8 µM: 100%
PIK4CB
  remaining binding at 2.8 µM: 94%
SRPK1
  remaining binding at 2.8 µM: 92%
KIT(A829P)
  remaining binding at 2.8 µM: 98%
CDC2L1
  remaining binding at 2.8 µM: 95%
PIKFYVE
  remaining binding at 2.8 µM: 100%
DCAMKL2
  remaining binding at 2.8 µM: 97%
LIMK1
  remaining binding at 2.8 µM: 98%
MARK3
  remaining binding at 2.8 µM: 70%
DCAMKL3
  remaining binding at 2.8 µM: 96%
